biological target: T1, IRAK4 (Homo sapiens, UniProt Q9NWZ3); experiment: IRAK4 MSD Degradation in OCI-LY10; format: cell-based; conditions: OCI-LY10 cells, 4 hrs incubation, read-out: IRAK4 degradation in OCI-LY10 at 4 hrs: DC50
T1 construct: endogenous in cells; host or cells: OCI-LY10
T1 sequence (Q9NWZ3 1-460): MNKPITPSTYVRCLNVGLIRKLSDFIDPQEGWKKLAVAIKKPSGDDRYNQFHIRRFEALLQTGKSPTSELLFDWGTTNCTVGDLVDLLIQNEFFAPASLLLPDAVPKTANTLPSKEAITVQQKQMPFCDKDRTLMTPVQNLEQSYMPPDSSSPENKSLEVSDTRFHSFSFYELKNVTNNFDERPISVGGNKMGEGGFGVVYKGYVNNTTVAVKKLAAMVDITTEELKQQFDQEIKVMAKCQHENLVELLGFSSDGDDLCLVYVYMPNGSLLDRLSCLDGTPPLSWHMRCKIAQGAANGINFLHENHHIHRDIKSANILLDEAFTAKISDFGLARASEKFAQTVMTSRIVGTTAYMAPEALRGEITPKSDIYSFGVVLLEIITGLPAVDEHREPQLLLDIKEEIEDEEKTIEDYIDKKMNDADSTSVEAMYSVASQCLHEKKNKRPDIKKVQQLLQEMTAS
In short: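 IRAK4 remaining in lysates was read by Meso Scale electrochemiluminescence sandwich (2H9 capture, Y279 plus SULFO-TAG detection). Cells were exposed 4 to 24 h at 37 °C to eight 3-fold dilutions from 1 to 10 μM final top; three-parameter logistic fit gave DC50.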

Compared with `Cn1c(=O)n(C2CCC(=O)NC2=O)c2cccc(C[C@H]3CC[C@H](N(C)C[C@H]4CC[C@H](n5cc6cc(NC(=O)c7cccc(C(F)(F)F)n7)c(C(C)(C)O)cc6n5)CC4)CC3)c21` (stereo partly shown) [I-62], `CN(C[C@H]1CC[C@H](n2cc3cc(NC(=O)c4cccc(C(F)(F)F)n4)c(C(C)(C)O)cc3n2)CC1)c1cccc2c1n(C)c(=O)n2C1CCC(=O)NC1=O` (stereo partly shown) [I-310, N-[2-[4-[[[1-(2,6-dioxo-3-piperidyl)-3-methyl-2-oxo-benzimidazol-4-yl]-methyl-amino]methyl]cyclohexyl]-6-(1-hydroxy-1-methyl-ethyl)indazol-5-yl]-6-(trifluoromethyl)pyridine-2-carboxamide] is higher in DC50: < 50 nM for the first, 500 to 1000 nM for the second.

First: COc1cc2nn([C@H]3CC[C@H](CN4CCC(c5ccc6c(c5)n(C)c(=O)n6C5CCC(=O)NC5=O)CC4)CC3)cc2cc1NC(=O)c1cccc(C(F)(F)F)n1 (stereo partly shown) [I-262]
Second: COc1cc2nn([C@H]3CC[C@H](CN4CCC(c5cccc6c5n(C)c(=O)n6C5CCC(=O)N(C)C5=O)CC4)CC3)cc2cc1NC(=O)c1cccc(C(F)(F)F)n1 (stereo partly shown) [I-257]
The DC50 of the first is lower: < 50 nM for the first, 500 to 1000 nM for the second.

`Cn1c(=O)n(C2CCC(=O)NC2=O)c2ccc(C#CCCCNC[C@H]3CC[C@H](n4cc5cc(NC(=O)c6cccc(C(F)(F)F)n6)c(C(C)(C)O)cc5n4)CC3)cc21` (stereo partly shown) [I-61, N-[2-[4-[[5-[1-(2,6-dioxo-3-piperidyl)-3-methyl-2-oxo-benzimidazol-5-yl]pent-4-ynylamino]methyl]cyclohexyl]-6-(1-hydroxy-1-methyl-ethyl)indazol-5-yl]-6-(trifluoromethyl)pyridine-2-carboxamide] and `Cn1c(=O)n(C2CCC(=O)NC2=O)c2cccc(C#CCCCNC[C@H]3CC[C@H](n4cc5cc(NC(=O)c6cccc(C(F)(F)F)n6)c(C(C)(C)O)cc5n4)CC3)c21` (stereo partly shown) [I-60, N-[2-[4-[[5-[1-(2,6-dioxo-3-piperidyl)-3-methyl-2-oxo-benzimidazol-4-yl]pent-4-ynylamino]methyl]cyclohexyl]-6-(1-hydroxy-1-methyl-ethyl)indazol-5-yl]-6-(trifluoromethyl)pyridine-2-carboxamide] cannot be ordered by DC50: < 50 nM for the first, < 50 nM for the second.

`CN(C[C@H]1CC[C@H](n2cc3cc(NC(=O)c4cccc(C(F)(F)F)n4)c(N4CCOCC4)cc3n2)CC1)C1CCN(Cc2cccc3c2n(C)c(=O)n3C2CCC(=O)NC2=O)CC1` (stereo partly shown) [I-214] and `Cn1c(=O)n(C2CCC(=O)NC2=O)c2cccc(CCCC3CCN(C[C@H]4CC[C@H](n5cc6cc(NC(=O)c7cccc(C(F)(F)F)n7)c(N7C[C@@H]8C[C@H]7CO8)cc6n5)CC4)CC3)c21` (stereo partly shown) [I-154] fall in the same range of DC50: 50 to 100 nM for the first, 50 to 100 nM for the second.

First: COc1cc2nn([C@H]3CC[C@H](CN4CCN(c5cccc6c5n(C)c(=O)n6C5CCC(=O)NC5=O)CC4)CC3)cc2cc1NC(=O)c1cccc(C(C)(C)F)n1 (stereo partly shown) [I-167]
Second: Cn1c(=O)n(C2CCC(=O)NC2=O)c2cccc(CCN3CCN(C[C@H]4CC[C@H](n5cc6cc(NC(=O)c7cccc(C(F)(F)F)n7)c(C(C)(C)O)cc6n5)CC4)CC3)c21 (stereo partly shown) [I-146]
The DC50 of the first is higher: 50 to 100 nM for the first, < 50 nM for the second.

`CN(C[C@H]1CC[C@H](n2cc3cc(NC(=O)c4ccccn4)c(C(C)(C)O)cc3n2)CC1)C1CCN(c2ccc3c(c2)n(C)c(=O)n3C2CCC(=O)NC2=O)CC1` (stereo partly shown) [I-82] and `CN(C[C@H]1CC[C@H](n2cc3cc(NC(=O)c4ccccn4)c(C(C)(C)O)cc3n2)CC1)C1CCN(c2cccc3c2n(C)c(=O)n3C2CCC(=O)NC2=O)CC1` (stereo partly shown) [I-84] cannot be ordered by DC50: < 50 nM for the first, < 50 nM for the second.

Compared with `Cn1c(=O)n(C2CCC(=O)NC2=O)c2cccc(CCC3CC4(CCN(C[C@H]5CC[C@H](n6cc7cc(NC(=O)c8cnn9cccnc89)c(C(C)(C)O)cc7n6)CC5)CC4)C3)c21` (stereo partly shown) [I-105], `COc1cc2nn([C@H]3CC[C@H](CN4CCC5(CC4)CC(CCc4cccc6c4n(C)c(=O)n6C4CCC(=O)NC4=O)C5)CC3)cc2cc1NC(=O)c1cccc(C(F)(F)F)n1` (stereo partly shown) [I-259] is higher in DC50: < 50 nM for the first, 50 to 100 nM for the second.

First: CN(C[C@H]1CC[C@H](n2cc3cc(NC(=O)c4cccc(C(F)(F)F)n4)c(C(C)(C)O)cc3n2)CC1)C1CCN(c2ccc3c(c2)n(C2CCC(=O)NC2=O)c(=O)n3C)CC1 (stereo partly shown) [I-83]
Second: Cn1c(=O)n(C2CCC(=O)NC2=O)c2cccc(CN3CC4(CCN(C[C@H]5CC[C@H](n6cc7cc(NC(=O)c8cccc(C(F)(F)F)n8)c(C(C)(C)O)cc7n6)CC5)CC4)C3)c21 (stereo partly shown) [I-57]
The DC50 of the first is higher: 500 to 1000 nM for the first, < 50 nM for the second.

`CN(CC#Cc1ccc2c(c1)n(C)c(=O)n2C1CCC(=O)NC1=O)C[C@H]1CC[C@H](n2cc3cc(NC(=O)c4cccc(C(F)(F)F)n4)c(C(F)F)cc3n2)CC1` (stereo partly shown) [I-148] gave a DC50 of 500 to 1000 nM.

same assay, conditions: OCI-LY10 cells, 24 hrs incubation, read-out: IRAK4 degradation in OCI-LY10 at 24 hrs: DC50

Compared with `CN(C[C@H]1CC[C@H](n2cc3cc(NC(=O)c4cccc(C(C)(C)F)n4)c(C(C)(C)O)cc3n2)CC1)[C@H]1CC[C@H](CNc2cccc3c2C(=O)N(C2CCC(=O)NC2=O)C3=O)CC1` (stereo partly shown) [I-58], `CN(C[C@H]1CC[C@H](n2cc3cc(NC(=O)c4cccc(C(C)(C)F)n4)c(C(C)(C)O)cc3n2)CC1)[C@H]1CC[C@H](Nc2cccc3c2C(=O)N(C2CCC(=O)NC2=O)C3=O)CC1` (stereo partly shown) [I-306] is lower in DC50: 50 to 100 nM for the first, < 50 nM for the second.

`COc1cc2nn([C@H]3CC[C@H](CN4CC5(CC(CNc6cccc7c6C(=O)N(C6CCC(=O)NC6=O)C7=O)C5)C4)CC3)cc2cc1NC(=O)c1cccc(C(F)(F)F)n1` (stereo partly shown) [I-274] and `COc1cc2nn(C3CCC(CN4CC5(CCC(CNc6cccc7c6C(=O)N(C6CCC(=O)NC6=O)C7=O)CC5)C4)CC3)cc2cc1NC(=O)c1cccc(C(C)(F)F)n1` (stereo not shown) [I-122] fall in the same range of DC50: 50 to 100 nM for the first, 50 to 100 nM for the second.

First: CN(CCCOCCCNc1cccc2c1C(=O)N(C1CCC(=O)NC1=O)C2=O)C[C@H]1CC[C@H](n2cc3cc(NC(=O)c4cccc(C(F)(F)F)n4)c(C(C)(C)O)cc3n2)CC1 (stereo partly shown) [I-31]
Second: CN(CCCO[C@H]1C[C@H](Nc2cccc3c2C(=O)N(C2CCC(=O)NC2=O)C3=O)C1)C[C@H]1CC[C@H](n2cc3cc(NC(=O)Cc4cccc(C(F)(F)F)n4)c(C(C)(C)O)cc3n2)CC1 (stereo partly shown) [I-70]
The DC50 of the first is lower: 50 to 100 nM for the first, 500 to 1000 nM for the second.

First: CN(CCCO[C@H]1C[C@H](Nc2cccc3c2C(=O)N(C2CCC(=O)NC2=O)C3=O)C1)C[C@H]1CC[C@H](n2cc3cc(NC(=O)c4coc(-c5ccnc(NCC6CC6)c5)n4)c(C(C)(C)O)cc3n2)CC1 (stereo partly shown) [I-221]
Second: COc1cc2nn([C@H]3CC[C@H](CN4CCC(O[C@H]5C[C@H](Nc6cccc7c6C(=O)N(C6CCC(=O)NC6=O)C7=O)C5)CC4)CC3)cc2cc1NC(=O)c1cccc(C(C)(C)F)n1 (stereo partly shown) [I-305]
The DC50 of the first is lower: < 50 nM for the first, 50 to 100 nM for the second.

First: CC(C)(O)c1cc2nn([C@H]3CC[C@H](CN4CCC5(CC4)CC(Nc4cccc6c4C(=O)N(C4CCC(=O)NC4=O)C6=O)C5)CC3)cc2cc1NC(=O)c1cccc(C(F)(F)F)n1 (stereo partly shown) [I-313]
Second: CC(C)(C)c1cccc(C(=O)Nc2cc3cn([C@H]4CC[C@H](CN5CCC6(CC5)CC(Nc5cccc7c5C(=O)N(C5CCC(=O)NC5=O)C7=O)C6)CC4)nc3cc2C(C)(C)O)n1 (stereo partly shown) [I-249]
The DC50 of the first is lower: < 50 nM for the first, 50 to 100 nM for the second.

`COc1cc2nn([C@H]3CC[C@H](CN4CC5(CC(CCNc6cccc7c6C(=O)N(C6CCC(=O)NC6=O)C7=O)C5)C4)CC3)cc2cc1-n1ccc2ccccc2c1=O` (stereo partly shown) [I-286] and `COc1cc2nn([C@H]3CC[C@H](CN4CCC5(CC4)CC(CCNc4cccc6c4C(=O)N(C4CCC(=O)NC4=O)C6=O)C5)CC3)cc2cc1NC(=O)c1ccc(F)c(C)n1` (stereo partly shown) [I-121] fall in the same range of DC50: 50 to 100 nM for the first, 50 to 100 nM for the second.

Compared with `CN[C@@H](C)C(=O)N[C@H](C(=O)N1CCC[C@H]1c1nc(C(=O)c2cccc(OCCCC3CC4(CCN(C[C@H]5CC[C@H](n6cc7cc(NC(=O)c8cccc(C(F)(F)F)n8)c(OC)cc7n6)CC5)CC4)C3)c2)cs1)C1CCCCC1` [I-181, N-[2-[4-[[2-[3-[3-[2-[(2S)-1-[(2S)-2-cyclohexyl-2-[[(2S)-2-(methylamino)propanoyl]amino]acetyl]pyrrolidin-2-yl]thiazole-4-carbonyl]phenoxy]propyl]-7-azaspiro[3.5]nonan-7-yl]methyl]cyclohexyl]-6-methoxy-indazol-5-yl]-6-(trifluoromethyl)pyridine-2-carboxamide], `COc1cc2nn([C@H]3CC[C@H](CN4CCC5(CC4)CC(CCNc4cccc6c4C(=O)N(C4CCC(=O)NC4=O)C6=O)C5)CC3)cc2cc1NC(=O)c1nc(C(F)(F)F)cs1` (stereo partly shown) [I-208] is lower in DC50: 500 to 1000 nM for the first, 100 to 500 nM for the second.

`CN(CCCO[C@H]1C[C@H](Nc2cccc3c2C(=O)N(C2CCC(=O)NC2=O)C3=O)C1)C[C@]1(C)Cc2cc(NC(=O)c3cccc(C(F)(F)F)n3)c(N3CCOCC3)cc2O1` (stereo partly drawn) [I-330, N-[(2S)-2-[[3-[3-[[2-(2,6-dioxo-3-piperidyl)-1,3-dioxo-isoindolin-4-yl]amino]cyclobutoxy]propyl-methyl-amino]methyl]-2-methyl-6-morpholino-3H-benzofuran-5-yl]-6-(trifluoromethyl)pyridine-2-carboxamide] and `C[C@]1(CN2CCC3(CC2)CC(CCNc2cccc4c2C(=O)N(C2CCC(=O)NC2=O)C4=O)C3)Cc2cc(NC(=O)c3cccc(C(F)(F)F)n3)c(N3CCOCC3)cc2O1` (stereo partly drawn) [I-326, N-[(2R)-2-[[2-[2-[[2-(2,6-dioxo-3-piperidyl)-1,3-dioxo-isoindolin-4-yl]amino]ethyl]-7-azaspiro[3.5]nonan-7-yl]methyl]-2-methyl-6-morpholino-3H-benzofuran-5-yl]-6-(trifluoromethyl)pyridine-2-carboxamide] fall in the same range of DC50: 500 to 1000 nM for the first, 500 to 1000 nM for the second.

Work on `COc1cc2nn([C@H]3CC[C@H](CN4CCC5(CC4)CC(CNc4cccc6c4C(=O)N(C4CCC(=O)NC4=O)C6=O)C5)CC3)cc2cc1NC(=O)c1cccc(-c2cnn(C)c2)n1` (stereo partly shown) [I-218] yielded a DC50 of 50 to 100 nM.
